From US20080299140A1, “Immunogenic Composition and Peptide Sequences for Prevention and Treatment of an Hsv Condition” (priority 2002, published 2008)
Like-named read-outs stand apart in the source and are kept apart here.

What was measured:
[1] = biological target: T1, DR1=HLA-DR(α1*0101,α1*0101) (Homo sapiens, UniProt P01903+P01911, A100R/D57E/F55L/F60I/F76Y/I96L/L162R/M171V/P40L/Q125E/R42F/V115G/Y59C); test: biochemical; type: binding; settings: […]
T1 construct: endogenous in cells; host or cells: EBV homozygous human B cell line

[2] = biological target: T2, DR4=HLA-DR(α1*0101,α1*0401) (Homo sapiens, UniProt P01903+P01911, A100K/A169T/F76Y/I96L/K127E/L162R/M171V/N62H/P40V/Q125Y/R42H/S133A/S149N/S66Y/V115G/V209L/W38E); test: biochemical; type: binding
T2 construct: endogenous in cells; host or cells: BOLETH (EBV homozygous B cell line)

[3] = biological target: T3, DP402 DP (α1*0101, α1*0402) (Homo sapiens, UniProt P04440+P20036, A65V/A84D/A85E/L207M); test: biochemical; type: binding
T3 sequence (P20036 29-260): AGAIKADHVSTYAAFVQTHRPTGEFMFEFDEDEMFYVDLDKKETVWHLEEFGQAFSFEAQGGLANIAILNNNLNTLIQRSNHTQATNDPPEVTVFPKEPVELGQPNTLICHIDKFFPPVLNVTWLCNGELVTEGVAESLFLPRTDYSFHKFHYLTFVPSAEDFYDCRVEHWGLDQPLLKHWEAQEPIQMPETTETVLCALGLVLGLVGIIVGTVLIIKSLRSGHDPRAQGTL
T3 sequence (P04440 30-258 A65V/A84D/A85E): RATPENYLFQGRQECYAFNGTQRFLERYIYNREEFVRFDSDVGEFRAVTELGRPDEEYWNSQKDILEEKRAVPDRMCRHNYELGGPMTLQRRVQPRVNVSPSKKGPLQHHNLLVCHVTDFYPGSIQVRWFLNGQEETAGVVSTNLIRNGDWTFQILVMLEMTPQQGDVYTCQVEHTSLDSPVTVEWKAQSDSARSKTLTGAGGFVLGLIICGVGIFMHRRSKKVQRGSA

[4] = biological target: T4, I-E^d molecule (Mus musculus, UniProt P01904+P01915); test: Binding to I-E^d molecule; set-up: species or system mice
T4 sequence (P01904 26-255): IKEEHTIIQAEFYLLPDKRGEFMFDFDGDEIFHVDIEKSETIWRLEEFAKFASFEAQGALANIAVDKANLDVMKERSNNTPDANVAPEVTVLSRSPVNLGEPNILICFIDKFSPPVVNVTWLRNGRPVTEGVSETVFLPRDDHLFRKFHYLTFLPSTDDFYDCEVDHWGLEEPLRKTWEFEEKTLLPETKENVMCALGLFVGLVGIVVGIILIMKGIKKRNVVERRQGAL
T4 sequence (P01915 32-264): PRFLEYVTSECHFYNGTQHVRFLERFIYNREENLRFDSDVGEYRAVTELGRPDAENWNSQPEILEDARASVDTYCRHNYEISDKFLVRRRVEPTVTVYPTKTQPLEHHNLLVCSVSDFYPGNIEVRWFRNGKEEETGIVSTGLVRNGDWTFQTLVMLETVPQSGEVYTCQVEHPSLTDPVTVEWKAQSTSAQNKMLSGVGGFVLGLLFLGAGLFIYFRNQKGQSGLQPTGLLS

[5] = test system: T-cells; test: Cytokine analysis (IL-2, IL-4, IFN-γ sandwich ELISA); type: cell-based, mice
Description: T-cells were stimulated with either immunizing peptides (10 μg/ml), the irrelevant control peptide (10 μg/ml), UV-inactivated HSV-1 (MOI=3), or with ConA (0.5 μg/ml) as a positive control. Culture media were harvested 48 h (for IL-2) or 96 h (for IL-4 and IFN-γ) later and analyzed by specific sandwich ELISA following the manufacturer's instructions (PharMingen, San Diego, Calif.).

[6] = Class II MHC allele DR1, read-out: IC50, DR1
[7] = Class II MHC allele DR4, read-out: IC50, DR4
[8] = Table V, […], read-out: IC50 DR4
[9] = T cells treated with Abs to CD4
[10] = T cells treated with Abs to CD8
[11] = splenocyte derived T cells, no Abs, average of triplicates (+/- SD)

In the case of CC[C@H](C)[C@H](NC(=O)[C@@H]1CCCN1C(=O)[C@H](CS)NC(=O)[C@H](C)NC(=O)CNC(=O)[C@H](CC(C)C)NC(=O)[C@H](CO)NC(=O)[C@H](CCCCN)NC(=O)[C@@H](N)CC(N)=O)C(=O)N[C@@H](CCCNC(=N)N)C(=O)N[C@H](C(=O)N[C@@H](CCC(N)=O)C(=O)N1CCC[C@H]1C(=O)N[C@@H](CCCNC(=N)N)C(=O)N[C@@H](Cc1c[nH]c2ccccc12)C(=O)N[C@@H](CC(N)=O)C(=O)N[C@@H](Cc1ccc(O)cc1)C(=O)N[C@@H](Cc1ccc(O)cc1)C(=O)N[C@@H](CC(=O)O)C(=O)N[C@@H](CO)C(=O)N[C@@H](Cc1ccccc1)C(=O)N[C@@H](CO)C(=O)N[C@@H](C)C(=O)N[C@H](C(=O)N[C@@H](CO)C(=O)N[C@@H](CCC(=O)O)C(=O)N[C@@H](CC(=O)O)C(=O)N[C@@H](CC(N)=O)C(=O)N[C@@H](CC(C)C)C(=O)NCC(=O)N[C@@H](Cc1ccccc1)C(=O)N[C@@H](CC(C)C)C(=O)O)C(C)C)[C@@H](C)O [HSV 33], the IC50 ([1]; Table V, read-out: IC50 DR1) is reported as 53 nM, the IC50 [1, 6] is reported as 53 nM and the IC50 [2, 7] is reported as 6 nM. The IC50 [2, 8] was 8 nM, the IC50 ([3]; Class II MHC allele DP402) was 65 nM and the IC50 ([3]; Table V, […]) was 65 nM.

Molecule CC[C@H](C)[C@H](NC(=O)[C@H](CO)NC(=O)[C@@H]1CCCN1C(=O)[C@@H](NC(=O)[C@H](Cc1c[nH]cn1)NC(=O)[C@H](Cc1c[nH]c2ccccc12)NC(=O)[C@H](CC(N)=O)NC(=O)[C@@H]1CCCN1C(=O)[C@@H]1CCCN1C(=O)[C@@H](NC(=O)[C@H](CCC(N)=O)NC(=O)[C@@H]1CCCN1C(=O)[C@H](C)N)[C@@H](C)CC)[C@@H](C)CC)C(=O)N[C@@H](CCC(N)=O)C(=O)N[C@@H](CC(=O)O)C(=O)N[C@@H](C)C(=O)N[C@@H](C)C(=O)N[C@H](C(=O)N1CCC[C@H]1C(=O)N[C@@H](Cc1ccc(O)cc1)C(=O)N[C@@H](Cc1c[nH]cn1)C(=O)N1CCC[C@H]1C(=O)N1CCC[C@H]1C(=O)N[C@@H](C)C(=O)N[C@H](C(=O)N1CCC[C@H]1C(=O)N[C@@H](CC(N)=O)C(=O)N[C@@H](CC(N)=O)C(=O)N[C@@H](CCSC)C(=O)NCC(=O)N[C@@H](CC(C)C)C(=O)O)[C@@H](C)O)[C@@H](C)O [HSV 35] has an IC50 ([1]; Table V, read-out: IC50 DR1) of 3160 nM, an IC50 [1, 6] of 3160 nM and an IC50 [2, 7] of 600 nM. The IC50 [2, 8] was 600 nM, the IC50 ([3]; Class II MHC allele DP402) was > 100000 nM and the IC50 ([3]; Table V, […]) was > 100000 nM. The “binding to I-E^d molecule” value [4] was “strong binders”.

For CC[C@H](C)[C@H](NC(=O)[C@H](CCC(N)=O)NC(=O)[C@@H]1CCCN1C(=O)[C@H](C)NC(=O)[C@H](CCC(=O)O)NC(=O)[C@H](CO)NC(=O)[C@@H]1CCCN1C(=O)[C@H](C)NC(=O)[C@H](CC(N)=O)NC(=O)[C@H](CC(C)C)NC(=O)[C@H](CC(C)C)NC(=O)[C@@H](NC(=O)[C@H](CO)NC(=O)[C@H](CCCNC(=N)N)NC(=O)[C@H](CS)NC(=O)[C@H](C)NC(=O)[C@H](CCCNC(=N)N)NC(=O)[C@H](CCC(=O)O)NC(=O)[C@H](CC(C)C)NC(=O)[C@@H](NC(=O)[C@H](C)NC(=O)[C@H](Cc1ccc(O)cc1)NC(=O)[C@H](Cc1ccc(O)cc1)NC(=O)[C@@H](NC(=O)[C@@H](NC(=O)[C@@H](NC(=O)[C@@H]1CCCN1C(=O)[C@H](CC(C)C)NC(=O)[C@H](CO)NC(=O)[C@@H]1CCCN1C(=O)[C@@H]1CCCN1C(=O)[C@@H](N)CCC(N)=O)[C@@H](C)CC)[C@@H](C)O)C(C)C)C(C)C)C(C)C)C(=O)N[C@H](C(=O)N[C@@H](CCCNC(=N)N)C(=O)O)C(C)C [HSV 36], the IC50 ([1]; Table V, read-out: IC50 DR1) was 3 nM, the IC50 [1, 6] was 3 nM and the IC50 [2, 7] was 93 nM. It also gave an IC50 [2, 8] of 93 nM, an IC50 ([3]; Class II MHC allele DP402) of 98 nM and an IC50 ([3]; Table V, […]) of 98 nM. For the same molecule, the “IFNγ, Anti-CD4” value [5, 9] was 6 (+/−2) ng/ml, the “IL-2, Anti-CD4” value [5, 9] was 22 (+/−2) pg/ml and the “IFNγ, Anti-CD8” value [5, 10] was 66 (+/−2) ng/ml. The “IL-2, Anti-CD8” value [5, 10] was 88 (+/−5) pg/ml, the “IFNγ, None” value [5, 11] was 60 (+/−4) ng/ml and the “IL-2, None” value [5, 11] was 92 (+/−5) pg/ml.

In the case of CC[C@H](C)[C@H](NC(=O)[C@H](CO)NC(=O)[C@H](CC(=O)O)NC(=O)[C@@H](NC(=O)[C@@H](NC(=O)[C@@H](NC(=O)CNC(=O)[C@H](CCC(N)=O)NC(=O)[C@H](CCC(N)=O)NC(=O)[C@H](Cc1ccc(O)cc1)NC(=O)[C@H](C)NC(=O)[C@H](CCC(N)=O)NC(=O)[C@@H]1CCCN1C(=O)[C@H](CO)NC(=O)[C@H](CC(C)C)NC(=O)[C@H](CS)NC(=O)[C@H](C)NC(=O)[C@@H](N)CO)C(C)C)[C@@H](C)O)C(C)C)C(=O)NCC(=O)N[C@@H](CCSC)C(=O)N[C@@H](CC(C)C)C(=O)N1CCC[C@H]1C(=O)N[C@@H](CCCNC(=N)N)C(=O)N[C@@H](Cc1ccccc1)C(=O)N[C@H](C(=O)N1CCC[C@H]1C(=O)N[C@@H](CCC(=O)O)C(=O)N[C@@H](CC(N)=O)C(=O)N[C@@H](CCC(N)=O)C(=O)N[C@@H](CCCNC(=N)N)C(=O)N[C@H](C(=O)N[C@H](C(=O)N[C@@H](C)C(=O)N[C@H](C(=O)N[C@@H](Cc1ccc(O)cc1)C(=O)O)C(C)C)C(C)C)[C@@H](C)O)[C@@H](C)CC [HSV 37], the IC50 ([1]; Table V, read-out: IC50 DR1) is reported as 4 nM, the IC50 [1, 6] is reported as 4 nM and the IC50 ([2]; IC50, DR4) is reported as 40 nM. It also gave an IC50 ([2]; IC50 DR4) of 40 nM, an IC50 ([3]; Class II MHC allele DP402) of 167 nM and an IC50 ([3]; Table V, […]) of 167 nM. For the same molecule, the “binding to I-E^d molecule” value [4] was “strong binders”.
